Like-named read-outs stand apart in the source and are kept apart here. Where a SMILES comes first, the peptide text is derived from it.

The test system of data set [1] is SRIF receptors on AtT-20 cells. To be noted: cited from earlier work; for IC50: read-out: IC50 at somatostatin receptors of AtT-20 cells, Nicolaou and Hirschmann, ESCOM 1990; for affinity for the SRIF receptor: relative to O-linked isomers or other glycosides.
Another data set concerns the target hSSTR3 (Homo sapiens, UniProt P32745). The data set is described as follows: Binding at human SRIF receptor subtype hSSTR3. To be noted: for Ki: TABLE 3, read-out: hSSTR 3 Ki.
The test system of a further data set is five hSSTRs. The data set is described as follows: Profile / average over the five human SRIF receptor subtypes. It counts as binding.
The target of the next data set is hSSTR4 (Homo sapiens, UniProt P31391). The data set is described as follows: Binding at human SRIF receptor subtype hSSTR4. Particulars: for Ki: TABLE 3, read-out: hSSTR 4 Ki.
Data set [2] has as its system β2-adrenergic receptor. To be noted: cited from earlier work.
For data set [3], the target named is T1, NK-1 receptor (Homo sapiens, UniProt P25103). Particulars: cited from earlier work.
In data set [4] the target is T1, NK-1 receptor. The data set is described as follows: Binding at the NK-1 receptor (Examples 109-110).
Data set [5] has as its system some sixty-five other receptors. The data set is described as follows: Binding at some sixty-five other receptors.
Data set [6] relates to SRIF receptors on AtT-20 cells. The data set is described as follows: Binding at SRIF receptors of AtT-20 cells (Examples 104-110, Tables 1-3). Also noted: species or system mouse; key to AtT-20 cells IC50: DNB: Did Not Bind.
Data set [7] concerns β2-adrenergic receptor. The data set is described as follows: Binding at the β2-adrenergic receptor. To be noted: among some sixty-five receptors.
Data set [8] has as its target T2, human neurokinin-1 receptor (NK1R) (Homo sapiens, UniProt P25103).
T2 construct: expressed in transfected cells; host or cells: COS cells
The data set is described as follows: Displacement of 125I-substance P from human NK1R expressed in COS cells (Example 12). Format: binding. To be noted: for IC50: 125I-substance P, COS cells (Example 12). As to the method:
The affinity of a variety of compounds for the substance P receptor was determined employing the following procedure.
To express the cloned human neurokinin-1 receptor (NK1R) transiently in COS, the cDNA for the human NK1R was cloned into the expression vector pCDM9 which was derived from pCDM8 (Invitrogen) by inserting the ampicillin resistance gene (nucleotide 1973 to 2964 from Bluescript SK+) into the Sac II site. Transfection of 20 μg of the plasmid DNA into 10 million COS cells was achieved by electroporation in 800 μl of the transfection buffer ([…], 1.2 mM MgCl2, 2.4 mM K2 HPO4, 0.6 mM KH2PO4, […], 10 mM HEPES pH 7.4) at 260 V and 950 μF using the IBI Genezapper (IBI, New Haven, Conn.). The cells were incubated in 10% fetal calf serum, 2 mM glutamine, 100 U/ml penicillin-streptomycin, and 90% DMEM media (Gibco, Grand Island, N.Y.) in 5% CO2 at 37° C. for three days before the binding assay.
The binding assay of human NK1R expressed in COS cells is based on the use of ^125 I-substance P (^125 I-SP, from DuPont, Boston, Mass.) as a radioactively labeled ligand which competes with unlabeled substance P or any other ligand for binding to the human NK1R. Monolayer cell cultures of COS were dissociated by the non-enzymatic solution (Specialty Media, Lavallette, N.J.) and resuspended in appropriate volume of the bind buffer (50 mM Tris pH 7.5, 5 mM MnCl2, 150 mM NaCl, 0.04 mg/ml bacitracin, 0.004 mg/ml leupeptin, 0.2 mg/ml BSA, 0.01 mM phosphoramidon) such that 200 μl of the cell suspension would give rise to about 10,000 cpm of specific ^125 I-SP binding (approximately 50,000 to 200,000 cells). In the binding assay, 200 μl of cells were added to a tube containing 20 μl of 1.5 to 2.5 nM of ^125 I-SP and 20 μl of unlabeled substance P or any other test compound. The tubes were incubated at 4° C. or at room temperature for 1 hour with gentle shaking. The bound radioactivity was separated from unbound radioactivity by GF/C filter (Brandel, Gaithersburg, Md.) which was pre-wetted with 0.1 polyethylenimine. The filter was washed with 3 ml of wash buffer (50 Tris pH 7.5, 5 mM MnCl2, 150 mM NaCl) three times and its radioactivity was determined by gamma counter.
A variety of compounds were tested according to the COS cell procedure. The concentration of compound required to inhibit the binding of substance P to the human neurokinin-1 receptor by 50% was measured.

The subject of data set [9] is SRIF receptor. The data set is described as follows: Displacement of 125I-CGP-23996 from SRIF receptor on AtT-20 cells (Example 13). It counts as binding, mouse. Particulars: for IC50: displacement of 125I-CGP-23996, AtT-20 cells (Example 13), read-out: IC50.
For a further data set, the target named is hSSTR5 (Homo sapiens, UniProt P35346). The data set is described as follows: Binding at human SRIF receptor subtype hSSTR5. Particulars: TABLE 3; read-out: hSSTR 5 Ki.
A further data set has as its target hSSTR2 (Homo sapiens, UniProt P30874). The data set is described as follows: Binding at human SRIF receptor subtype hSSTR2. Particulars: for Ki: TABLE 3, read-out: hSSTR 2 Ki.
The next data set has as its target hSSTR1 (Homo sapiens, UniProt P30872). The data set is described as follows: Binding at human SRIF receptor subtype hSSTR1. Particulars: TABLE 3; read-out: hSSTR 1 Ki.
A further data set concerns β-Adrenergic receptor. The data set is described as follows: Displacement of 125I-CYP from β-adrenergic receptor, AtT-20. It counts as binding, mouse.
Data set [10] deals with SRIF receptors present on AtT-20 cells. Particulars: radioligand 125I-Tyr11-SRIF; read-out: IC50 against 125I-Tyr11-SRIF; cited from earlier work.
Data set [11] has as its target SRIF receptor. To be noted: radioligand 125I-CGP-23996; read-out: IC50 when 125I-CGP-23996 was the radioligand; cited from earlier work.
[12] abbreviates: TABLE 2 (Example 106), read-out: AtT-20 cells IC50.
The mark [13] stands for this setting: TABLE 3 (Example 108), read-out: AtT-20 IC50.

hSSTR5, sequence (P35346 whole entry): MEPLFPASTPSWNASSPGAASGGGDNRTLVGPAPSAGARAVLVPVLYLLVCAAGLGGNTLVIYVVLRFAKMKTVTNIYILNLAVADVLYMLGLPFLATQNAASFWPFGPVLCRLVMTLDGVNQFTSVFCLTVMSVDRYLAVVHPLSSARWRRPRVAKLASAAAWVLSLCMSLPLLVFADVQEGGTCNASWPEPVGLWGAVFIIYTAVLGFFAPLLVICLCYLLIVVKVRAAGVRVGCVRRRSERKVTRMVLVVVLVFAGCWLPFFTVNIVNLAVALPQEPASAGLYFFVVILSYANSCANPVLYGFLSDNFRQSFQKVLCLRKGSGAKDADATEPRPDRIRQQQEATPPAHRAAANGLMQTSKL
hSSTR4, sequence (P31391 whole entry): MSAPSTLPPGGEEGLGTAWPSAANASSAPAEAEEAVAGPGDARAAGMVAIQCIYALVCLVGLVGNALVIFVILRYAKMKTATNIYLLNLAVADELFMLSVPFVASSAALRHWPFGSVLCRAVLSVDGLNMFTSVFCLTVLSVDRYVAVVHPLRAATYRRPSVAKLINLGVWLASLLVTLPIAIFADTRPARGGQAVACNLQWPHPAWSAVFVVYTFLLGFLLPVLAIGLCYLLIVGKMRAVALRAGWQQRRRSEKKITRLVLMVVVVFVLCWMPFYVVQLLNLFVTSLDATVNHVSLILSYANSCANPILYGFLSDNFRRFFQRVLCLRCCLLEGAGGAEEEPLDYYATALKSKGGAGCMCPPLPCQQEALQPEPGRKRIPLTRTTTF
T1 sequence (P25103 whole entry): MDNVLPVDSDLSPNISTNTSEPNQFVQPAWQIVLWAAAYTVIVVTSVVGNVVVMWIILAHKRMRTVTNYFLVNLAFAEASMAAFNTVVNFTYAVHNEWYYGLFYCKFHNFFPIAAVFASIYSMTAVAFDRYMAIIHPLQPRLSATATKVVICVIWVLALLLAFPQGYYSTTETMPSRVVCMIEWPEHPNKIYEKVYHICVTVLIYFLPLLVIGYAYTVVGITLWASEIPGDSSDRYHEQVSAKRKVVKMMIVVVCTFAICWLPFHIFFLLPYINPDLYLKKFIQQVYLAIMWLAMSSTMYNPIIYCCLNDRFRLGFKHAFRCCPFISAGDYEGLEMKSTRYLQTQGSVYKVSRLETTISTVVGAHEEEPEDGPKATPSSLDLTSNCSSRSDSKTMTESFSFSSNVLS
T2 sequence (P25103 whole entry): as above
hSSTR3, sequence (P32745 whole entry): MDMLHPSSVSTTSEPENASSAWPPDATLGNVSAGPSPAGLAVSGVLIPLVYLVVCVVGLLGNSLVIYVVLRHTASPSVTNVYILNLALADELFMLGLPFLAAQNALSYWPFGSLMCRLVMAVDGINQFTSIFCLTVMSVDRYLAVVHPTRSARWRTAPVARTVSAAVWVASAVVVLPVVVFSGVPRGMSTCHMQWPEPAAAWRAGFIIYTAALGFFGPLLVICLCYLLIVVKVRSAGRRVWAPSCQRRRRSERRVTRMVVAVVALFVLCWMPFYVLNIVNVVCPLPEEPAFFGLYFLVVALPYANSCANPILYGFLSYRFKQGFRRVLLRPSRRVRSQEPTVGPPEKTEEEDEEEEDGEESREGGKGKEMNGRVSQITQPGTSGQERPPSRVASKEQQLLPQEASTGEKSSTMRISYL
hSSTR1, sequence (P30872 whole entry): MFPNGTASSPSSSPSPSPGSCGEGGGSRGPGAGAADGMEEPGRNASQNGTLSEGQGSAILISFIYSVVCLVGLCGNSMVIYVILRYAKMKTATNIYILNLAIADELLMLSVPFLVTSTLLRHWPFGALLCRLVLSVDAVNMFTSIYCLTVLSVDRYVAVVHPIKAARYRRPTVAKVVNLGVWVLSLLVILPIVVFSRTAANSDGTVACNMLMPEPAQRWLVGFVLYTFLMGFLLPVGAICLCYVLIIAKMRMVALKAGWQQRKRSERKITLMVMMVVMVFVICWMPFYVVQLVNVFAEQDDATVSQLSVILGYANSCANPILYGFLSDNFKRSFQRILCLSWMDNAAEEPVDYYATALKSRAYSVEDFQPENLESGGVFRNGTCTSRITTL
hSSTR2, sequence (P30874 whole entry): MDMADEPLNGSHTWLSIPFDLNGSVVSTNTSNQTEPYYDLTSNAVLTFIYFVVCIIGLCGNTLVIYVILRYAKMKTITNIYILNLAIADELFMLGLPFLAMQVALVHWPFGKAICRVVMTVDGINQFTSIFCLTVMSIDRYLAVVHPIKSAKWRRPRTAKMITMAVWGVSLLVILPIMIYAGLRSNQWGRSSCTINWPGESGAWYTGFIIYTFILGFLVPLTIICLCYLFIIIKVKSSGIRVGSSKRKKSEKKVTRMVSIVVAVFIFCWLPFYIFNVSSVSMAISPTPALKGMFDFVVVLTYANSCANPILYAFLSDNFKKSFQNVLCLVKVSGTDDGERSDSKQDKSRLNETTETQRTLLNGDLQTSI

For the compound `NCCCCCOC[C@H]1O[C@@H](OCCc2c[nH]c3ccccc23)[C@H](OCc2ccccc2)[C@@H](OCc2ccccc2)[C@@H]1OCc1ccccc1` [III-4a, 2-(1H-Indol-3-yl)ethyl 2,3,4-Tri-O-benzyl-6-O-(5-aminopentyl)-β-D-glucopyranoside], the IC50 was around 15000 nM in data set [1] and 150 nM on NK-1 receptor [4] (read-out: affinity at the NK-1 receptor). Further, the Ki on hSSTR3 worked out at 2800 nM; on hSSTR4, 1100 nM. Also, the “hSSTR subtype affinity profile” value in the data set with five hSSTRs is “high affinities for hSSTR2 and hSSTR4 and a low affinity for SSTR1”. In the data set on β2-adrenergic receptor [2], the “binding / antagonism at the β2-adrenergic receptor” value is “bind the β2 -adrenergic receptor as antagonists”. The “binding / antagonism at the NK-1 receptor” value at NK-1 receptor [3] is reported as “potent antagonist ligands”. The “binding of the NK-1 receptor” value on NK-1 receptor [4] was “did not bind”.

On to `CC(=O)NCCCCCOC[C@H]1O[C@@H](OCCc2c[nH]c3ccccc23)[C@H](OCc2ccccc2)[C@@H](OCc2ccccc2)[C@@H]1OCc1ccccc1` [III-4d], for which the “binding of some sixty-five other receptors” value in [5] was “did not bind some sixty-five other receptors”. For the same compound, the “activity / affinity at SRIF receptors of AtT-20 cells” value in [6] was “inactive”. Moreover, in [6] (among some sixty-five receptors), the “binding of the SRIF receptors” value is “did not bind”. In addition, the “binding of the β2-adrenergic receptors” value in the data set with β2-adrenergic receptor [7] is on record as “did not bind”. In data set [8], the IC50 was determined as 56 nM.

For the compound `OCCCCCNC[C@H]1O[C@@H](OCCc2c[nH]c3ccccc23)[C@H](OCc2ccccc2)[C@@H](OCc2ccccc2)[C@@H]1OCc1ccccc1` [III-4e, 2-(1H-Indol-3-yl)ethyl 2,3,4-Tri-O-benzyl-6-amino-6-deoxy-6-N-(5-hydroxypentyl)-β-D-glucopyranoside], the “affinity for the SRIF receptor” value in [1] is “about the same as those of III-4a and III-5b”. Also, the IC50 in the data set on SRIF receptor [9] was determined as 9500 nM; in data set [6] (setting [12]), 14000 nM; in [8], 120 nM.

`NCCCCCOC[C@H]1O[C@@H](OCCc2c[nH]c3ccccc23)[C@H](OCc2ccccc2)C[C@@H]1OCc1ccccc1` [III-5a, 2-(1H-Indol-3-yl)ethyl 2,4-Di-O-benzyl-3-deoxy-6-O-(5-aminopentyl)-β-D-glucopyranoside]: the IC50 is around 10000 nM in data set [1]; 8400 nM in data set [6] (TABLE 1 (Example 105), read-out: AtT-20 cells 50 IC); 8400 nM in data set [6] (setting [13]). Further, the Ki on hSSTR3 was 3300 nM; on hSSTR5, 5100 nM; on hSSTR2 it was 3100 nM; at hSSTR1, 4100 nM; on hSSTR4, 1700 nM. The “hSSTR subtype affinity profile” value in the data set on five hSSTRs was “high affinities for hSSTR2 and hSSTR4 and a low affinity for SSTR1”. Besides, the “binding / antagonism at the β2-adrenergic receptor” value in the data set on β2-adrenergic receptor [2] was “bind the β2 -adrenergic receptor as antagonists”. The “binding / antagonism at the NK-1 receptor” value at NK-1 receptor [3] is “potent antagonist ligands”.

With `OCCCCCNC[C@H]1O[C@@H](OCCc2c[nH]c3ccccc23)[C@H](OCc2ccccc2)C[C@@H]1OCc1ccccc1` [III-5c, 2-(1H-Indol-3-yl)ethyl 2,4-Di-O-benzyl-3,6-dideoxy-6-amino-6-N-(5-hydroxypentyl)-β-D-glucopyranoside], the “affinity for the SRIF receptor” value in data set [1] is “about the same as those of III-4a and III-5b”. The IC50 in the data set on SRIF receptor [9] was 1300 nM; in data set [6] (setting [12]), 5100 nM; in [8], 180 nM.

Regarding `NCCCCC(N)NC[C@H]1O[C@@H](OCCc2c[nH]c3ccccc23)[C@H](OCc2ccccc2)[C@@H](OCc2ccccc2)[C@@H]1OCc1ccccc1` (stereo partly drawn) [IV-42, 2-(1H-indol-3-yl)ethyl 2,3,4-tri-O-benzyl-6-N-(1',5'-diamino-pentyl)-β-D-glucopyranoside], on hSSTR3, the “affinity at SSTR 3” value is given as “submicromolar affinities”. The Ki at hSSTR3 came to 600 nM; on hSSTR5 it was 1300 nM; at hSSTR2, 600 nM; at hSSTR1, 2100 nM; at five hSSTRs (average over hSSTRs) it was 1000 nM; on hSSTR4, 500 nM. Further, at hSSTR2, the “affinity at SSTR 2” value is “submicromolar affinities”. Moreover, the “activity / affinity at SRIF receptors of AtT-20 cells” value in data set [6] is reported as “did not result in an increase in affinity”. The “AtT-20 cells IC50” value in data set [6] (TABLE 2 (Example 106)) is on record as “DNB”. In addition, the IC50 in data set [6] (setting [13]) came out at 13000 nM. Further, the “affinity at SSTR 4” value at hSSTR4 is “submicromolar affinities”.

Consider `NCCCCCOC[C@H]1O[C@@H](OCCc2c[nH]c3ccccc23)[C@H](OCc2c[nH]cn2)C[C@@H]1OCc1ccccc1` [IV-60, 2-(1H-Indol-3-yl)ethyl 2-O-(4'-methylene-1H-imidazole)-3-deoxy-4-O-benzyl-6-O-(5'-aminopentyl)-β-D-glucopyranoside], for which the Ki was 6200 nM on hSSTR3; 4000 nM on hSSTR5; 4600 nM on hSSTR2; 6800 nM at hSSTR1; 3000 nM on hSSTR4. The “hSSTR subtype affinity profile” value in the data set with five hSSTRs is listed as “atypically high affinity for hSSTR5”. Besides, the IC50 in [6] (setting [13]) is 4100 nM.

Take `C[C@@H](O)[C@@H]1NC(=O)[C@H](CCCCN)NC(=O)[C@@H](Cc2c[nH]c3ccccc23)NC(=O)[C@H](Cc2ccccc2)NC(=O)[C@@H]2CCCN2C(=O)[C@H](Cc2ccccc2)NC1=O` [L-363,301, reference compound] (HELM PEPTIDE1{P.F.[dW].K.T.F}$PEPTIDE1,PEPTIDE1,1:R1-6:R2$$$V2.0): the IC50 with SRIF receptor [9] stood at 18.7 nM. In addition, the “binding / antagonism at the β2-adrenergic receptor” value in the data set on β2-adrenergic receptor [2] is reported as “do not bind”. Besides, the “binding / antagonism at the NK-1 receptor” value at NK-1 receptor [3] is “do not bind”.

As for `CO[C@@H]1O[C@H](COCCCCCN)[C@@H](OCc2ccccc2)[C@H](OCc2ccccc2)[C@H]1OCc1ccccc1` [Methyl 6-O-(5-aminopentyl)-2,3,4-tri-O-benzyl-β-D-glucopyranoside], in the data set on β-Adrenergic receptor, the “binding of the β-adrenergic receptor” value is given as “does not bind the β-adrenergic receptor”. In the data set on β-Adrenergic receptor (125I-CYP (0.1 nM), AtT-20), this compound showed an Inhibition of 0%. Moreover, in the data set on SRIF receptor [9], the “binding by the SRIF receptor” value is “is bound by the substance P and SRIF receptors”; the IC50 amounted to 40000 nM. In addition, in [8], the “binding by the substance P receptor” value was “is bound by the substance P and SRIF receptors”; the IC50 was found to be 400 nM.

As for somatostatin [SRIF, reference compound], the IC50 was around 9.3 nM in data set [1], 0.83 nM in data set [10], 9.3 nM in the data set with SRIF receptor [9] and 9.3 nM on SRIF receptor [11]. Also, the “hSSTR subtype affinity profile” value with five hSSTRs is “decreases in the order SSTR2>>SSTR1>SSTR3>SSTR4 and SSTR5”. Further, in the data set with β2-adrenergic receptor [2], the “binding / antagonism at the β2-adrenergic receptor” value is reported as “do not bind”. In addition, the “binding / antagonism at the NK-1 receptor” value in the data set with NK-1 receptor [3] is “do not bind”.
